For one compound, Ki results are on record in BindingDB's records for doi:10.1016/s0028-3908(00)00035-6 (University of Cambridge, 2000).

Experiment [1] deals with Somatostatin receptor type 2 (Homo sapiens, UniProt P30874).
The target in experiment [2] is Somatostatin receptor type 4 (Homo sapiens, UniProt P31391).
Experiment [3] concerns the target Somatostatin receptor type 2 (Rattus norvegicus, UniProt P30680).
The target in experiment [4] is Somatostatin receptor type 5 (Homo sapiens, UniProt P35346).
For experiment [5], the target named is Somatostatin receptor type 3 (Homo sapiens, UniProt P32745).

“And” between values parts separate entries of the source, which are not always exact repeats. Equal values may be shown once.

Chain of Somatostatin receptor type 2 (Rattus norvegicus, UniProt P30680) (P30680 whole entry): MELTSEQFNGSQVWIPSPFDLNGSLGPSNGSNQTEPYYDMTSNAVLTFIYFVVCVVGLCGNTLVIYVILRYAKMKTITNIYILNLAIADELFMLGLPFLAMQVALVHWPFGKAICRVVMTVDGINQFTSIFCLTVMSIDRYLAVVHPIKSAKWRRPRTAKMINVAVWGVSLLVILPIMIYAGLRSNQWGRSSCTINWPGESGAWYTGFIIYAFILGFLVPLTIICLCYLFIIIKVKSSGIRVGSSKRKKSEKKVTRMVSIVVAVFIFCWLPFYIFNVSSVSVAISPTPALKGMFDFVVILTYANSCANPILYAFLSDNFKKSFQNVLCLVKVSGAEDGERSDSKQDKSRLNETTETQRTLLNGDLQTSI
Chain of Somatostatin receptor type 5 (P35346 whole entry): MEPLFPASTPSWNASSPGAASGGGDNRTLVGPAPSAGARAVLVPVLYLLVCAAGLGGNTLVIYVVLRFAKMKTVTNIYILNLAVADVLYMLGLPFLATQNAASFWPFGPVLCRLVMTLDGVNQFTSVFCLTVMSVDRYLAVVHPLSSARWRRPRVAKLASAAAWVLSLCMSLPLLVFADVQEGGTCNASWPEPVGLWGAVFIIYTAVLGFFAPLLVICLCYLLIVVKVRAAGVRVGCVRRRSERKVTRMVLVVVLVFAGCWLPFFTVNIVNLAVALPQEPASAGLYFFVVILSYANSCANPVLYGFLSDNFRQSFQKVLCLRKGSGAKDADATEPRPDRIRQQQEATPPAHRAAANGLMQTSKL
Chain of Somatostatin receptor type 2 (Homo sapiens, UniProt P30874) (P30874 whole entry): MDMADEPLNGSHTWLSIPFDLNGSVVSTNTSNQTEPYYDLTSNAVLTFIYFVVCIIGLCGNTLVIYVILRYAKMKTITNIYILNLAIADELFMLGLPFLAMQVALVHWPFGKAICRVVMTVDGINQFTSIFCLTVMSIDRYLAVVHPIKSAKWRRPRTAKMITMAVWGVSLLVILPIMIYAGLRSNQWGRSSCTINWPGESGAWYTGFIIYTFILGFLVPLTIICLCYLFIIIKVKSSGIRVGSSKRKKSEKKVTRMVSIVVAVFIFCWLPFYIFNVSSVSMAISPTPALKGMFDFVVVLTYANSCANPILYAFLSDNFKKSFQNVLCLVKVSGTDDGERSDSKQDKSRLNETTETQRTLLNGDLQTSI
Chain of Somatostatin receptor type 4 (P31391 whole entry): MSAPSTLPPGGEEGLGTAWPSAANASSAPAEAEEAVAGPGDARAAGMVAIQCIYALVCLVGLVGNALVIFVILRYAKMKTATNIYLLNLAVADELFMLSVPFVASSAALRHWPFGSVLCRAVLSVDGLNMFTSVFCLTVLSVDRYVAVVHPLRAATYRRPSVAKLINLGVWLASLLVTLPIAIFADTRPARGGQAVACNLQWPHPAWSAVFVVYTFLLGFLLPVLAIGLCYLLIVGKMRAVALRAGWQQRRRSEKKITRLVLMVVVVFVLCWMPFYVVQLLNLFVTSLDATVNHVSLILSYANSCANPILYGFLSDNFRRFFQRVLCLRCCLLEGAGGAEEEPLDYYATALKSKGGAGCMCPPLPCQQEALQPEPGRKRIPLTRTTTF
Chain of Somatostatin receptor type 3 (P32745 whole entry): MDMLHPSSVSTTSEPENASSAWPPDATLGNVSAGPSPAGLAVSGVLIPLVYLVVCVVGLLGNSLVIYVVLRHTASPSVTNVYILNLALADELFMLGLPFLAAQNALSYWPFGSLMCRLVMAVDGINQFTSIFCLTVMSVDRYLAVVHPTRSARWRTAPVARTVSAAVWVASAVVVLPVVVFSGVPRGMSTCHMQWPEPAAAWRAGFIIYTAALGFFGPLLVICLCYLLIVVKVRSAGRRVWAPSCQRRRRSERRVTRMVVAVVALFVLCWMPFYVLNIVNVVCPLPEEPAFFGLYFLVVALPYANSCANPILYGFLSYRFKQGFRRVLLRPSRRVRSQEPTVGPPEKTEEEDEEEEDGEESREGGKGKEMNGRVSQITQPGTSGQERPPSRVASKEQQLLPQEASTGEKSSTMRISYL

`CC(=O)N[C@@H](Cc1ccc([N+](=O)[O-])cc1)C(=O)N[C@@H]1CSSC[C@@H](C(=O)N[C@H](Cc2ccc(O)cc2)C(N)=O)NC(=O)[C@H]([C@@H](C)O)NC(=O)[C@H](CCCCN)NC(=O)[C@@H](Cc2c[nH]c3ccccc23)NC(=O)[C@H](Cc2ccc(O)cc2)NC1=O` [CAS_183658-72-2]: the Ki was 2.63 nM in experiment [1]; 1740 nM in experiment [2]; 7.94 nM and 4.47 nM in experiment [3]; 331 nM in experiment [4]; 851 nM in experiment [5].

Usually Ki stands for a dissociation constant, usually derived from enzyme kinetics or from competition with a known ligand.
